Experiments:
THP-1 = assay: Cell growth inhibition assay (CellTiter-Glo), THP-1; assay type: cell-based, human; conditions: THP-1 cells, 4 days; for GI50: Homo sapiens, 96 h, half-maximal growth inhibition; for THP-1 TGI: total growth inhibition
Method in brief: (§1)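 A separate day 0 plate allows cytotoxic and cytostatic effects to be distinguished: viable-cell ATP after 4-day compound treatment (top 10 μM, 3-fold steps) is expressed relative to it. DMSO-only wells count as 100% and medium-only wells as −100%.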

BRD4 = BRD4 (Homo sapiens (Human), UniProt O60885); assay: TR-FRET in-vitro binding assay for BRD4; conditions: 45 nM His-Brd4(44-477), acetyl-histone H4 (AcK 5, 8, 12, 16) peptide
Method in brief: (§2)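 Binding is detected by TR-FRET following incubation for 35 minutes at 30° C.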

MV-4-11 = assay: Cell growth inhibition assay (CellTiter-Glo), MV-4-11; assay type: cell-based, human; conditions: MV-4-11 cells, 4 days; for GI50: Homo sapiens, MV4-11, 96 h, half-maximal growth inhibition; for MV-4-11 TGI: total growth inhibition
Method in brief: as §1

CREBBP = CREBBP (Homo sapiens (Human), UniProt Q92793); assay: AlphaScreen in-vitro binding assay for CREBBP; conditions: 324 nM His-CREBBP (1081-1197), acetyl-histone H4 (AcK 5, 8, 12) peptide
Method in brief: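 IC50 values were derived by non-linear regression of percent inhibition across 8 compound concentrations. Protein was His-tagged CREBBP bromodomain (1081-1197), peptide acetyl-histone H4 (AcK 5, 8, 12), in HEPES pH 7.5 buffer. Read-out was AlphaScreen with Ni-chelate acceptor and streptavidin donor beads, 35 min at 30° C then 60 min at RT.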

BRD3 = BRD3 (Homo sapiens (Human), UniProt Q15059); assay: TR-FRET in-vitro binding assay for BRD3; conditions: 45 nM His-Brd3(20-477), acetyl-histone H4 (AcK 5, 8, 12, 16) peptide
Method in brief: as §2

K-562 = assay: Cell growth inhibition assay (CellTiter-Glo), K-562; assay type: cell-based, human; conditions: K-562 cells, 4 days; for GI50: Homo sapiens, K562, 96 h, half-maximal growth inhibition; for K-562 TGI: total growth inhibition
Method in brief: as §1

BRD2 = BRD2 (Homo sapiens (Human), UniProt P25440); assay: TR-FRET in-vitro binding assay for BRD2; conditions: 45 nM His-Brd2(60-472), acetyl-histone H4 (AcK 5, 8, 12, 16) peptide
Method in brief: as §2

Chain of BRD3 (Q15059 20-477): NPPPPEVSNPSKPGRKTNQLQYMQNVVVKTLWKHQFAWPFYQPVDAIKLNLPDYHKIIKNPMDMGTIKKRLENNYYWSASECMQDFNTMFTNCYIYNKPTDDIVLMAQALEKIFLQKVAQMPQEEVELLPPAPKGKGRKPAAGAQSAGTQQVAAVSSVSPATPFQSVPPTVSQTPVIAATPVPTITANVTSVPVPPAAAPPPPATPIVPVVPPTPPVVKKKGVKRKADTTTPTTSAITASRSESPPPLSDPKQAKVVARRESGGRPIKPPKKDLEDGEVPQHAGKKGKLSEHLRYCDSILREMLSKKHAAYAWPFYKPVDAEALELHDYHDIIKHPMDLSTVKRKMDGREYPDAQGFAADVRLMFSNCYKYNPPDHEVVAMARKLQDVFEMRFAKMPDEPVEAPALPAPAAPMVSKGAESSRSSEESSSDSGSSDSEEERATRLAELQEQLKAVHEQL
Chain of BRD2 (P25440 60-472): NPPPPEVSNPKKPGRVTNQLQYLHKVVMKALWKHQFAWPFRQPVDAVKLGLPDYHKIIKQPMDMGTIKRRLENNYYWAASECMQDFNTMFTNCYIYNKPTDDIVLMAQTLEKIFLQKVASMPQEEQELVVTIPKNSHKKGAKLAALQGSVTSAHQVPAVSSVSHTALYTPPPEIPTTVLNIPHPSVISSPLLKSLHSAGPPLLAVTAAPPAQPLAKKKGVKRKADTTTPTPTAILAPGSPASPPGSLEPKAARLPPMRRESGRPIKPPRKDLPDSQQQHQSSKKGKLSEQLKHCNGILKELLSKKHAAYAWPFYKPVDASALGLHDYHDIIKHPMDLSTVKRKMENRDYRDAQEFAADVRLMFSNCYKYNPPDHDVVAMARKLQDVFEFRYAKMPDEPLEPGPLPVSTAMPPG
Chain of CREBBP (Q92793 1081-1197): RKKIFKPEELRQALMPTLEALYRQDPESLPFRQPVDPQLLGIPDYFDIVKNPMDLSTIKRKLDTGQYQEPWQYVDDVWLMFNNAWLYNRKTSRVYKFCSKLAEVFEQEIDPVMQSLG

Compound | GI50 (THP-1) [nM] | THP-1 TGI (THP-1) [nM] | IC50 (BRD4) [nM] | GI50 (MV-4-11) [nM] | MV-4-11 TGI (MV-4-11) [nM] | IC50 (CREBBP) [nM] | IC50 (BRD3) [nM] | GI50 (K-562) [nM] | K-562 TGI (K-562) [nM] | IC50 (BRD2) [nM]
Cn1c(-c2cccn(C)c2=O)cc2c1C(c1ccc(Cl)cc1)N(c1cc(Cl)c(=O)n(C)c1)C2=O (centres unmarked) [Example 43, 5-(5-chloro-1-methyl-6-oxo-1,6-dihydropyridin-3-yl)-6-(4-chlorophenyl)-1-methyl-2-(1-methyl-2-oxo-1,2-dihydropyridin-3-yl)-5,6-dihydropyrrolo[3,4-b]pyrrol-4(1H)-one] | 276 | 492 | 120 | 183 | 310 | 690 | 77 | 934 | >10000 | 90
Cn1c(-c2cccc(=O)n2C)cc2c1C(c1ccc(Cl)cc1)N(c1cc(Cl)c(=O)n(C)c1)C2=O (centres unmarked) [Example 44, 5-(5-chloro-1-methyl-6-oxo-1,6-dihydropyridin-3-yl)-6-(4-chlorophenyl)-1-methyl-2-(1-methyl-6-oxo-1,6-dihydropyridin-2-yl)-5,6-dihydropyrrolo[3,4-b]pyrrol-4(1H)-one] | 1420 | 2700 | 66 | 264 | 391 | 310 | 41 | 2590 | >10000 | 54
Cc1cc(N2C(=O)c3cc(-c4ccc(=O)n(C)c4)n(C)c3C2c2ccc(Cl)cc2)cn(C)c1=O (centres unmarked) [Example 46, 6-(4-chlorophenyl)-5-(1,5-dimethyl-6-oxo-1,6-dihydropyridin-3-yl)-1-methyl-2-(1-methyl-6-oxo-1,6-dihydropyridin-3-yl)-5,6-dihydropyrrolo[3,4-b]pyrrol-4(1H)-one] | 525 | 1070 | 14 | 165 | 292 | 280 | 16 | 1600 | >10000 | 19
Cc1cc(N2C(=O)c3cc(-c4cccn(C)c4=O)n(C)c3C2c2ccc(Cl)cc2)cn(C)c1=O (centres unmarked) [Example 47, 6-(4-chlorophenyl)-5-(1,5-dimethyl-6-oxo-1,6-dihydropyridin-3-yl)-1-methyl-2-(1-methyl-2-oxo-1,2-dihydropyridin-3-yl)-5,6-dihydropyrrolo[3,4-b]pyrrol-4(1H)-one] | 195 | 351 | 140 | 98.4 | 156 | 690 | 82 | 698 | >10000 | 110
Cc1cc(N2C(=O)c3cc(-c4ccccn4)n(C)c3C2c2ccc(Cl)cc2)cn(C)c1=O (centres unmarked) [Example 52, 6-(4-chlorophenyl)-5-(1,5-dimethyl-6-oxo-1,6-dihydropyridin-3-yl)-1-methyl-2-(pyridin-2-yl)-5,6-dihydropyrrolo[3,4-b]pyrrol-4(1H)-one] | 776 | 2630 | 55.3 | 872 | 2355 | 720 | 54 | 2750 | >10000 | 67
COc1cccc(-c2cc3c(n2C)C(c2ccc(Cl)cc2)N(c2cc(C)c(=O)n(C)c2)C3=O)n1 (centres unmarked) [Example 59, 6-(4-chlorophenyl)-5-(1,5-dimethyl-6-oxo-1,6-dihydropyridin-3-yl)-2-(6-methoxypyridin-2-yl)-1-methyl-5,6-dihydropyrrolo[3,4-b]pyrrol-4(1H)-one] | 86.3 | 136 | 72 | 74 | 106 | 940 | 78 | 297 | >10000 | 80
Cn1cc(N2C(=O)c3cc(-c4cccc(=O)n4C)n(C4CC4)c3C2c2ccc(Cl)cc2)cc(Cl)c1=O (centres unmarked) [Example 62, 5-(5-chloro-1-methyl-6-oxo-1,6-dihydropyridin-3-yl)-6-(4-chlorophenyl)-1-cyclopropyl-2-(1-methyl-6-oxo-1,6-dihydropyridin-2-yl)-5,6-dihydropyrrolo[3,4-b]pyrrol-4(1H)-one] | 758 | 1190 | 170 | 226 | 329 | 270 | 130 | 1030 | >10000 | 140
Cc1cc(N2C(=O)c3cc(-c4cccc(=O)n4C)n(C4CC4)c3C2c2ccc(Cl)cc2)cn(C)c1=O (centres unmarked) [Example 63, 6-(4-chlorophenyl)-1-cyclopropyl-5-(1,5-dimethyl-6-oxo-1,6-dihydropyridin-3-yl)-2-(1-methyl-6-oxo-1,6-dihydropyridin-2-yl)-5,6-dihydropyrrolo[3,4-b]pyrrol-4(1H)-one] | 426 | 788 | 120 | 94.4 | 160 | 180 | 85 | 680 | >10000 | 100
Cn1cc(N2C(=O)c3cc(-c4cccn(C)c4=O)n(C4CC4)c3C2c2ccc(Cl)cc2)cc(Cl)c1=O (centres unmarked) [Example 64, 5-(5-chloro-1-methyl-6-oxo-1,6-dihydropyridin-3-yl)-6-(4-chlorophenyl)-1-cyclopropyl-2-(1-methyl-2-oxo-1,2-dihydropyridin-3-yl)-5,6-dihydropyrrolo[3,4-b]pyrrol-4(1H)-one] | 109 | 215.5 | 85 | 118 | 196 | 1500 | 82 | 353 | >10000 | 50
Cc1cc(N2C(=O)c3cc(-c4ccc(=O)n(C)c4)n(C4CC4)c3C2c2ccc(Cl)cc2)cn(C)c1=O (centres unmarked) [Example 67, 6-(4-chlorophenyl)-1-cyclopropyl-5-(1,5-dimethyl-6-oxo-1,6-dihydropyridin-3-yl)-2-(1-methyl-6-oxo-1,6-dihydropyridin-3-yl)-5,6-dihydropyrrolo[3,4-b]pyrrol-4(1H)-one] | 143 | 353 | 88 | 66.7 | 118 | 300 | 85 | 404 | >10000 | 42
Cc1cc(N2C(=O)c3cc(C4CC4)n(C)c3C2c2ccc(Cl)cc2)cn(C)c1=O (centres unmarked) [Example 68, 6-(4-chlorophenyl)-2-cyclopropyl-5-(1,5-dimethyl-6-oxo-1,6-dihydropyridin-3-yl)-1-methyl-5,6-dihydropyrrolo[3,4-b]pyrrol-4(1H)-one] | 46.8 | 96 | 63.2 | 28.7 | 51.7 | 620 | 52.2 | 148 | >10000 | 67.2
Cc1cc(N2C(=O)c3cc(C)n(C)c3C2c2ccc(Cl)cc2)cn(C)c1=O (centres unmarked) [Example 69, 6-(4-chlorophenyl)-5-(1,5-dimethyl-6-oxo-1,6-dihydropyridin-3-yl)-1,2-dimethyl-5,6-dihydropyrrolo[3,4-b]pyrrol-4(1H)-one] | 65 | 144 | 121 | 37.8 | 84.3 | 1200 | 87 | 236 | >10000 | 159
Cc1cc(N2C(=O)c3ccn(C)c3C2c2ccc(Cl)cc2)cn(C)c1=O (centres unmarked) [Example 72, 6-(4-chlorophenyl)-5-(1,5-dimethyl-6-oxo-1,6-dihydropyridin-3-yl)-1-methyl-5,6-dihydropyrrolo[3,4-b]pyrrol-4(1H)-one] | 159 | 301 | 89.7 | 76.4 | 125 | 1430 | 90.8 | 294 | >10000 | 170
Cc1cc(N2C(=O)c3ccn(C)c3C2c2ccccc2)cn(C)c1=O (centres unmarked) [Example 79, 5-(1,5-dimethyl-6-oxo-1,6-dihydropyridin-3-yl)-1-methyl-6-phenyl-5,6-dihydropyrrolo[3,4-b]pyrrol-4(1H)-one] | 396 | 904 | 434 | 295 | 496 | 26800 | 222 | 1790 | >10000 | 660
